# Data published in patent US20250011331A1 (Nimbus Saturn, Inc., priority 2021, published 2025).
# Target: T1, HPK1 (Homo sapiens, UniProt Q92918)
# T1 construct: purchased Invitrogen
# Assay: HPK1 biochemical enzyme assay (microfluidic mobility shift)
# Conditions: 1.5 nM HPK1 (Invitrogen), 1 mM ATP, 30 min preincubation, 60 min at RT, Caliper EZ Reader
# Experimental: HPK1 biochemical enzyme assay: HPK1 enzyme inhibition was measured using a microfluidic mobility shift assay. Reactions were performed in a 384-well plate, containing 1.5 nM HPK1 (Invitrogen), in assay buffer (Cama Biosciences; pH 7.4). Test compounds were titrated in ten point curves (top final assay concentration 3 μM), and preincubated with enzyme/substrate mix for 30 min prior to initiation of the reaction by addition of ATP (1 mM final concentration) and substrate (1 μM final concentration; Carna Biosciences) diluted in assay buffer supplemented by MgCl2 (final assay concentration of 5 mM). Following 60 min incubation at RT, the reaction was terminated by addition of 60 μl/well termination buffer (Carna Biosciences) and signal determination using a Caliper EZ Reader (Perkin Elmer, UK).
# T1 sequence (Q92918 whole entry): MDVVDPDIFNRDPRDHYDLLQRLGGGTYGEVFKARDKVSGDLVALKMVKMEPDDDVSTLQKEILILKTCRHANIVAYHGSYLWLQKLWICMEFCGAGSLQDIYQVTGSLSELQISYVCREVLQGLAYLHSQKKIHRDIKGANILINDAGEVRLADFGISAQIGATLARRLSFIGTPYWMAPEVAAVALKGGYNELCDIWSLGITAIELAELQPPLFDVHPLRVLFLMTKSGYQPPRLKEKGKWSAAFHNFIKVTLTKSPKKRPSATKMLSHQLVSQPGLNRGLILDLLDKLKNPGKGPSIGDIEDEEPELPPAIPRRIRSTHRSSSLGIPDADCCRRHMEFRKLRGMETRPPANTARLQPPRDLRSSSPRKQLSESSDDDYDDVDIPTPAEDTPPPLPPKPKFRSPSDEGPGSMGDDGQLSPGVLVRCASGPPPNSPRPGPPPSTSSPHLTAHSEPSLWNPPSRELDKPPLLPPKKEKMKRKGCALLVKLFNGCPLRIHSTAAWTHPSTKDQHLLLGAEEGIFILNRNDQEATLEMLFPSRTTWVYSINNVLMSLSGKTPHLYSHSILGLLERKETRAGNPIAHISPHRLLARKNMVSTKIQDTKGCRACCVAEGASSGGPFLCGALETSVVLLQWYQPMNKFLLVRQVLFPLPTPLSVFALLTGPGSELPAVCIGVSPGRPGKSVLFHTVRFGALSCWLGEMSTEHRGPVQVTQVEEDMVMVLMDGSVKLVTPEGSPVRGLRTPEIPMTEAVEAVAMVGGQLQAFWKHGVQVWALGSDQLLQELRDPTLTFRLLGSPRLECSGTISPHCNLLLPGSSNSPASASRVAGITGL
row,IC50,Structure (SMILES)
1,≤ 100 nM,"Cc1cncc2ncc(-c3ccc(Nc4ccc([C@H]5CCOC5)c(CN(C)C)n4)c4c3CNC4=O)n12 (single isomer, unassigned) [Compound I-28]"
2,≤ 100 nM,CN(C)Cc1nc(Nc2ccc(-c3cnc4cc(F)ccn34)c3c2C(=O)NC3)ccc1C1CCCC1 [Compound I-22]
3,≤ 100 nM,"C[C@@H](O)c1ccc(Nc2ccc(-c3cnc4cc(F)ccn34)c3c2C(=O)NC3)nc1CN(C)C [Compound I-9, (R)-7-((6-((dimethylamino)methyl)-5-(1-hydroxyethyl)pyridin-2-yl)amino)-4-(7-fluoroimidazo[1,2-a]pyridin-3-yl)isoindolin-1-one]"
4,≤ 100 nM,"COC1CN(Cc2nc(Nc3ccc(-c4cnc5cnccn45)c4c3C(=O)NC4)ccc2C2CCOC2)C1 (centres unmarked) [Compound I-42, 4-imidazo[1,2-a]pyrazin-3-yl-7-[[6-[(3-methoxyazetidin-1-yl)methyl]-5-tetrahydrofuran-3-yl-2-pyridyl]amino]isoindolin-1-one]"
5,100 to 1000 nM,CN1CCCC1c1nc(Nc2ccc(-c3cnc4cc(F)ccn34)c3c2C(=O)NC3)ccc1C1CCOC1 (centres unmarked) [Compound I-16]
6,≤ 100 nM,C[C@H](OC1CCC1)c1ccc(Nc2ccc(-c3cnc4cnccn34)c3c2C(=O)NC3)nc1CN(C)C [Compound I-30]
7,> 1000 nM,"COC1CN(Cc2nc(Nc3ccc(-c4cnc5cnccn45)c4c3C(=O)NC4)ccc2C2CCOC2)C1 (centres unmarked) [Compound I-41, 4-imidazo[1,2-a]pyrazin-3-yl-7-[[6-[(3-methoxyazetidin-1-yl)methyl]-5-tetrahydrofuran-3-yl-2-pyridyl]amino]isoindolin-1-one]"
8,≤ 100 nM,"C[C@@H](OC[C@H]1COCCO1)c1ccc(Nc2ccc(-c3cnc4cc(F)ccn34)c3c2C(=O)NC3)nc1CN(C)C (single isomer, unassigned) [Compound I-34]"
9,≤ 100 nM,"CN(C)Cc1nc(Nc2ccc(-c3cnc4cc(F)ccn34)c3c2C(=O)NC3)ccc1[C@@]1(C)CCCO1 (single isomer, unassigned) [Compound I-5]"
10,≤ 100 nM,"CN(C)Cc1nc(Nc2ccc(-c3cnc4cc(F)ccn34)c3c2C(=O)NC3)ccc1C1(C)CCOCC1 [Compound I-4, 7-((6-((dimethylamino)methyl)-5-(4-methyltetrahydro-2H-pyran-4-yl)pyridin-2-yl)amino)-4-(7-fluoroimidazo[1,2-a]pyridin-3-yl)isoindolin-1-one]"
11,≤ 100 nM,"CN(C)Cc1cc(C2CCOC2)cc(Nc2ccc(-c3cnc4cc(F)ccn34)c3c2C(=O)NC3)n1 (single isomer, unassigned) [Compound I-45]"
12,≤ 100 nM,CN(C)Cc1nc(Nc2ccc(-c3cnc4cc(F)ccn34)c3c2C(=O)NC3)ccc1C(C)(C)N1CCOCC1=O [Compound I-25]
13,≤ 100 nM,C[C@@H](OC1CCC1)c1ccc(Nc2ccc(-c3cnc4cnccn34)c3c2C(=O)NC3)nc1CN(C)C [Compound I-29]
14,≤ 100 nM,"CN(C)Cc1nc(Nc2ccc(-c3cnc4cc(C#N)ccn34)c3c2C(=O)NC3)ccc1C1CCOC1 (single isomer, unassigned) [Compound I-38, 3-(7-((6-((dimethylamino)methyl)-5-(tetrahydrofuran-3-yl)pyridin-2-yl)amino)-1-oxoisoindolin-4-yl)imidazo[1,2-a]pyridine-7-carbonitrile]"
15,≤ 100 nM,COCC1CC(c2ccc(Nc3ccc(-c4cnc5cc(F)ccn45)c4c3C(=O)NC4)nc2CN(C)C)CCO1 (centres unmarked) [Compound I-32]
16,≤ 100 nM,"CO[C@H]1CCN(Cc2nc(Nc3ccc(-c4cnc5cc(F)ccn45)c4c3C(=O)NC4)ccc2C2CCN(C)C(=O)C2)C1 (stereo partly drawn) [Compound I-44, 4-(7-fluoroimidazo[1,2-a]pyridin-3-yl)-7-[[6-[[(3S)-3-methoxypyrrolidin-1-yl]methyl]-5-(1-methyl-2-oxo-4-piperidyl)-2-pyridyl]amino]isoindolin-1-one]"
17,> 1000 nM,CN(C)Cc1cc(C2CCOC2)cc(Nc2ccc(-c3cnc4cc(F)ccn34)c3c2C(=O)NC3)n1 (centres unmarked) [Compound I-46]
18,≤ 100 nM,C[C@H](c1ccc(Nc2ccc(-c3cnc4cnccn34)c3c2C(=O)NC3)nc1CN(C)C)C1CCOCC1 [Compound I-37]
19,≤ 100 nM,"CN(C)Cc1cc(C2CCOCC2)cc(Nc2ccc(-c3cnc4cc(F)ccn34)c3c2C(=O)NC3)n1 [Compound I-39, 7-((6-((dimethylamino)methyl)-4-(tetrahydro-2H-pyran-4-yl)pyridin-2-yl)amino)-4-(7-fluoroimidazo[1,2-a]pyridin-3-yl)isoindolin-1-one]"
20,≤ 100 nM,CN(C)Cc1nc(Nc2ccc(-c3cnc4cc(F)ccn34)c3c2C(=O)NC3)ccc1N1CCOC(C)(C)C1=O [Compound I-23]
21,≤ 100 nM,"CO[C@@]1(c2ccc(Nc3ccc(-c4cnc5cc(F)ccn45)c4c3C(=O)NC4)nc2CN(C)C)CCOC1 (single isomer, unassigned) [Compound I-20]"
22,≤ 100 nM,"C[C@@H](c1nc(Nc2ccc(-c3cnc4cc(F)ccn34)c3c2C(=O)NC3)ccc1C1CCOCC1)N(C)C [Compound I-8, (S)-7-((6-(1-(dimethylamino)ethyl)-5-(tetrahydro-2H-pyran-4-yl)pyridin-2-yl)amino)-4-(7-fluoroimidazo[1,2-a]pyridin-3-yl)isoindolin-1-one]"
23,≤ 100 nM,"CN(C)Cc1nc(Nc2ccc(-c3cnc4cc(C#N)ccn34)c3c2C(=O)NC3)ccc1C1CCOC1 (centres unmarked) [Compound I-47, 3-[7-[[6-[(dimethylamino)methyl]-5-tetrahydrofuran-3-yl-2-pyridyl]amino]-1-oxo-isoindolin-4-yl]imidazo[1,2-a]pyridine-7-carbonitrile]"
24,≤ 100 nM,"C[C@H](O)c1ccc(Nc2ccc(-c3cnc4cc(F)ccn34)c3c2C(=O)NC3)nc1CN(C)C [Compound I-10, (S)-7-((6-((dimethylamino)methyl)-5-(1-hydroxyethyl)pyridin-2-yl)amino)-4-(7-fluoroimidazo[1,2-a]pyridin-3-yl)isoindolin-1-one]"
25,≤ 100 nM,"CN(C)Cc1nc(Nc2ccc(-c3cnc4cc(F)ccn34)c3c2C(=O)NC3)ccc1[C@H]1CC[C@H](O)C1 [Compound I-3, 7-((6-((dimethylamino)methyl)-5-((1S,3S)-3-hydroxycyclopentyl)pyridin-2-yl)amino)-4-(7-fluoroimidazo[1,2-a]pyridin-3-yl)isoindolin-1-one]"
26,≤ 100 nM,"CN(C)Cc1nc(Nc2ccc(-c3cnc4cc(F)ccn34)c3c2C(=O)NC3)ccc1[C@]1(C)CCCO1 (single isomer, unassigned) [Compound I-6]"
27,≤ 100 nM,"C[C@H](OC[C@H]1COCCO1)c1ccc(Nc2ccc(-c3cnc4cc(F)ccn34)c3c2C(=O)NC3)nc1CN(C)C (single isomer, unassigned) [Compound I-33]"
28,≤ 100 nM,"CN(C)Cc1nc(Nc2ccc(-c3cnc4cc(F)ccn34)c3c2C(=O)NC3)ccc1[C@H]1CC[C@@H](O)C1 [Compound I-1, 7-((6-((dimethylamino)methyl)-5-((1S,3R)-3-hydroxycyclopentyl)pyridin-2-yl)amino)-4-(7-fluoroimidazo[1,2-a]pyridin-3-yl)isoindolin-1-one]"
29,100 to 1000 nM,"CN1CCN(C(=O)[C@H]2CCOC2)c2ccc(Nc3ccc(-c4cnc5cc(F)ccn45)c4c3C(=O)NC4)nc2C1 (single isomer, unassigned) [Compound I-18]"
